Source: patent US20230390319A1, “INTERFERON GENE STIMULATOR COMPOSITION COMPRISING INDOLIZINE DERIVATIVE AS ACTIVE INGREDIENT” (AJOU UNIVERSITY INDUSTRY-ACADEMIC COOPERATION FOUNDATION, priority 2020, published 2023)

Experiments:
[1] = system: THP-1 cells; experiment: Cell viability assay (CellTiter Clo) in THP-1 cells; format: cell-based, Human; conditions: THP-1 cells, 20 μM of each compound, co-treated with cGAMP (1 μg/ml)
Description: (§1) Human monocytic THP-1 wild-type (WT) and STING knockout (KO) cell lines were obtained from InvivoGen. Cells were cultured in 1×RPMI 1640 medium containing 10% fetal bovine serum (FBS, Hyclone), 2.05 mM L-glutamine (Hyclone) and 1% penicillin (Corning) in a humidified incubator at 37° C. under 5% CO2.
Cells were analyzed using CellTiter Clo (CTG, Promega). […] was measured using a TECAN micro plate reader SPARK. Results were normalized to DMSO control.
(§2) THP-1 cells were co-treated with each of 86 indolizine derivatives and a very small amount of cGAMP (1 μg/ml), the immune response of the THP-1 cells was examined by ISRE reporter assay, and the cytotoxicity of co-treatment was also evaluated (Table 1). All results were compared by normalization to the reporter assay results obtained by treatment with cGAMP alone. […] Thus, Compound 42 was used in subsequent experiments.

[2] = system: ISRE reporter signal; experiment: ISRE luciferase reporter assay, THP-1 cells co-treated with compound and cGAMP; format: cell-based, Human; conditions: THP-1 cells, 20 μM of each compound, co-treated with cGAMP (1 μg/ml), 24 hours
Description: as §1
To confirm immune responses, THP-1 cells were placed in 384-well plates (Grenier), and treated with each compound and cGAMP (1 μg/ml), and after 24 hours, ISRE activity was analyzed. QUANTI-Luc assay (InvivoGen) was performed using the cell culture supernatant to confirm the luciferase reporter gene signal. Fluorescent signals were measured using a TECAN micro plate reader SPARK, and the results were normalized to DMSO control.
as §2

Structure (SMILES) | Normalized cell viability [1] | Normalized RU (relative unit of ISRE reporter signal) [2]
CCN(CC)c1ccc(C(=O)c2cc(-c3ccc(C(F)(F)F)cc3)c3cc(C(F)(F)F)ccn23)cc1 [Compound 16] | 1.22 | 1.66
CCN(CC)c1ccc(C(=O)c2cc(-c3ccc(N(C)C)cc3)c3cc(C(C)=O)ccn23)cc1 [Compound 40] | 1.17 | 1.09
COc1ccc(C(=O)c2cc(-c3ccc(N(C)C)cc3)c3cc(C(F)(F)F)ccn23)cc1 [Compound 15] | 1.17 | 1.18
COc1ccc(-c2cc(C(=O)c3ccccc3)n3ccccc23)cc1 [Compound 49] | 1.21 | 1.17
CC(=O)c1cc(-c2ccc(C(F)(F)F)cc2)c2cc(C(F)(F)F)ccn12 [Compound 73] | 0.78 | 1.54
CC(=O)c1ccn2c(C(=O)c3ccccc3)cc(-c3ccc(N(C)C)cc3)c2c1 [Compound 30] | 1.26 | 1.33
CCN(CC)c1ccc(C(=O)c2cc(-c3ccc(N(C)C)cc3)c3ccccn23)cc1 [Compound 60] | 1.28 | 1.25
CC(=O)c1ccn2c(C(=O)c3ccccc3)cc(-c3ccc(C(F)(F)F)cc3)c2c1 [Compound 26] | 1.21 | 1.60
O=C(c1ccc(C(F)(F)F)cc1)c1cc(-c2ccc(C(F)(F)F)cc2)c2cc(C(F)(F)F)ccn12 [Compound 1] | 1.10 | 1.46
COc1ccc(C(=O)c2cc(-c3ccc(C(C)=O)cc3)c3ccccn23)cc1 [Compound 52] | 1.15 | 1.61
COc1ccc(C(=O)c2cc(-c3ccccc3)c3cc(C(C)=O)ccn23)cc1 [Compound 33] | 1.22 | 2.18
CC(=O)c1cc(-c2ccccc2)c2cc(C(F)(F)F)ccn12 [Compound 75] | 1.25 | 1.76
CC(=O)c1ccn2c(C(=O)c3ccc(C(F)(F)F)cc3)cc(-c3ccccc3)c2c1 [Compound 23] | 1.11 | 1.23
O=C(c1ccc(C(F)(F)F)cc1)c1cc(-c2ccccc2)c2cc(C(F)(F)F)ccn12 [Compound 3] | 1.04 | 1.40
CC(=O)c1ccn2c(C(=O)c3ccccc3)cc(-c3ccncc3)c2c1 [Compound 61] | 1.11 | 1.98
CCN(CC)c1ccc(C(=O)c2cc(-c3ccccc3)c3cc(C(C)=O)ccn23)cc1 [Compound 38] | 1.34 | 1.77
COc1ccc(C(=O)c2cc(-c3ccccc3)c3cc(C(F)(F)F)ccn23)cc1 [Compound 13] | 1.14 | 1.62
CC(=O)c1ccn2c(C(C)=O)cc(-c3ccc(C(F)(F)F)cc3)c2c1 [Compound 78] | 0.46 | 2.43
CC(=O)c1cc(-c2ccc(C(F)(F)F)cc2)c2ccccn12 [Compound 83] | 1.22 | 0.98
COc1ccc(-c2cc(C(=O)c3ccc(C(F)(F)F)cc3)n3ccc(C(C)=O)cc23)cc1 [Compound 24] | 1.21 | 1.33
CCN(CC)c1ccc(C(=O)c2cc(-c3ccccc3)c3ccccn23)cc1 [Compound 58] | 1.01 | 0.66
CCN(CC)c1ccc(-c2cc(C(=O)c3ccccc3)n3ccccc23)cc1 [Compound 70] | 1.19 | 1.21
